Assay results reported in ChEMBL document CHEMBL5506033, “Brain-Penetrant Macrocycles: Design Considerations, Future Prospects, and Call for Papers” (J Med Chem, 2024).

Tests used:
[1] = Half life in human; format: ADME
[2] = Oral bioavailability in human; format: ADME, organism-based; settings: in vivo

## C[C@H]1Oc2cc(cnc2N)-c2c(nn(C)c2C#N)CN(C)C(=O)c2ccc(F)cc21 [LORLATINIB]
[1]
  half-life: ~25 h
[2]
  bioavailability: 81%
